Measurements reported in PubChem BioAssay (NCI).
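Following 48 hours of exposure in 96-well plates, responses at five concentrations were used to interpolate endpoints linearly. Here, GI50 denotes the concentration required for 50% inhibition of growth. TGI: concentration producing complete growth inhibition.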

How the values were obtained:
Experiment in all cases: NCI-60 cell line screen, 48 h
[1] = test system: 786-0 renal
[2] = test system: A498 renal
[3] = test system: ACHN renal
[4] = test system: BT-549 breast
[5] = test system: CAKI-1 renal
[6] = test system: CCRF-CEM leukemia
[7] = test system: COLO 205 colon
[8] = test system: DU-145 prostate
[9] = test system: EKVX NSCLC
[10] = test system: HCC-2998 colon
[11] = test system: HCT-116 colon
[12] = test system: HCT-15 colon
[13] = test system: HL-60(TB) leukemia
[14] = test system: HOP-62 NSCLC
[15] = test system: HOP-92 NSCLC
[16] = test system: HS 578T breast
[17] = test system: HT29 colon
[18] = test system: IGROV1 ovarian
[19] = test system: K-562 leukemia
[20] = test system: KM12 colon
[21] = test system: LOX IMVI melanoma
[22] = test system: M14 melanoma
[23] = test system: MALME-3M melanoma
[24] = test system: MCF7 breast
[25] = test system: MDA-MB-231 breast
[26] = test system: MDA-MB-435
[27] = test system: MOLT-4 leukemia
[28] = test system: NCI-H226 lung
[29] = test system: NCI-H23 lung
[30] = test system: NCI-H460 lung
[31] = test system: NCI-H522 lung
[32] = test system: NCI/ADR-RES ovarian
[33] = test system: OVCAR-3 ovarian
[34] = test system: OVCAR-4 ovarian
[35] = test system: OVCAR-5 ovarian
[36] = test system: OVCAR-8 ovarian
[37] = test system: PC-3 prostate
[38] = test system: RPMI-8226 leukemia
[39] = test system: RXF 393 renal
[40] = test system: SF-268 CNS
[41] = test system: SF-295 CNS
[42] = test system: SF-539 CNS
[43] = test system: SK-MEL-2 melanoma
[44] = test system: SK-MEL-28 melanoma
[45] = test system: SK-MEL-5 melanoma
[46] = test system: SK-OV-3 ovarian
[47] = test system: SN12C renal
[48] = test system: SNB-19 CNS
[49] = test system: SNB-75 CNS
[50] = test system: SR leukemia
[51] = test system: SW-620 colon
[52] = test system: T-47D breast
[53] = test system: TK-10 renal
[54] = test system: U251 CNS
[55] = test system: UACC-257 melanoma
[56] = test system: UACC-62 melanoma
[57] = test system: UO-31 renal

COc1ccc2nc3ccccc3c(NCCNCC(C)O)c2c1 (configuration not stated)
GI50 [1]: 306 nM | TGI [1]: 1830 nM | GI50 [2]: 73.4 nM | TGI [2]: 730 nM | GI50 [3]: 375 nM | TGI [3]: 14.4 µM | GI50 [4]: 1610 nM | TGI [4]: 5.73 µM | GI50 [5]: 434 nM | TGI [5]: 11.4 µM | GI50 [6]: 436 nM | TGI [6]: 3.47 µM | GI50 [7]: 192 nM | TGI [7]: 704 nM | GI50 [8]: 516 nM | TGI [8]: 14.7 µM | GI50 [9]: 1100 nM | TGI [9]: 7.82 µM | GI50 [10]: 519 nM | TGI [10]: 2370 nM | GI50 [11]: 241 nM | TGI [11]: 1410 nM | GI50 [12]: 461 nM | TGI [12]: 10.6 µM | GI50 [13]: 492 nM | TGI [13]: 4.26 µM | GI50 [14]: 369 nM | TGI [14]: 2570 nM | GI50 [15]: 393 nM | TGI [15]: 3.48 µM | GI50 [16]: 1100 nM | TGI [16]: 12.2 µM | GI50 [17]: 323 nM | TGI [17]: 1900 nM | GI50 [18]: 387 nM | TGI [18]: 5.93 µM | GI50 [19]: 330 nM | GI50 [20]: 536 nM | TGI [20]: 14.2 µM | GI50 [21]: 202 nM | TGI [21]: 483 nM | GI50 [22]: 356 nM | TGI [22]: 1790 nM | GI50 [23]: 426 nM | TGI [23]: 1720 nM | GI50 [24]: 315 nM | TGI [24]: 4.14 µM | GI50 [25]: 310 nM | TGI [25]: 1850 nM | GI50 [26]: 433 nM | TGI [26]: 1770 nM | GI50 [27]: 368 nM | GI50 [28]: 708 nM | TGI [28]: 4.79 µM | GI50 [29]: 367 nM | TGI [29]: 2050 nM | GI50 [30]: 276 nM | TGI [30]: 10.4 µM | GI50 [31]: 427 nM | TGI [31]: 2090 nM | GI50 [32]: 5.11 µM | TGI [32]: 39.4 µM | GI50 [33]: 449 nM | TGI [33]: 9.4 µM | GI50 [34]: 463 nM | TGI [34]: 4.45 µM | GI50 [35]: 377 nM | TGI [35]: 5.01 µM | GI50 [36]: 441 nM | TGI [36]: 11.9 µM | GI50 [37]: 537 nM | TGI [37]: 4.82 µM | GI50 [38]: 398 nM | TGI [38]: 2660 nM | GI50 [39]: 373 nM | TGI [39]: 1740 nM | GI50 [40]: 583 nM | TGI [40]: 11.1 µM | GI50 [41]: 360 nM | TGI [41]: 4.02 µM | GI50 [42]: 435 nM | TGI [42]: 2040 nM | GI50 [43]: 785 nM | TGI [43]: 2800 nM | GI50 [44]: 539 nM | TGI [44]: 2770 nM | GI50 [45]: 1030 nM | TGI [45]: 2300 nM | GI50 [46]: 612 nM | TGI [46]: 9.12 µM | GI50 [47]: 253 nM | TGI [47]: 2220 nM | GI50 [48]: 391 nM | TGI [48]: 10.3 µM | GI50 [49]: 781 nM | TGI [49]: 2590 nM | GI50 [50]: 278 nM | TGI [50]: 10.8 µM | GI50 [51]: 300 nM | TGI [51]: 12.5 µM | GI50 [52]: 465 nM | TGI [52]: 6.27 µM | GI50 [53]: 540 nM | TGI [53]: 6.04 µM | GI50 [54]: 549 nM | TGI [54]: 4.94 µM | GI50 [55]: 810 nM | TGI [55]: 3.84 µM | GI50 [56]: 354 nM | TGI [56]: 2080 nM | GI50 [57]: 398 nM | TGI [57]: 2390 nM
